Experimental findings from paper PMC8122671, “New Succinimides with Potent Anticancer Activity: Synthesis, Activation of Stress Signaling Pathways and Characterization of Apoptosis in Leukemia and Cervical Cancer Cells” (International Journal of Molecular Sciences, 2021) are described below.

Data set [1] relates to HUVEC (normal endothelial) cells. Description: MTT cytotoxicity assay, HUVEC. Particulars: Homo sapiens, read-out: IC50 HUVEC. In kind it is cell-based. The protocol: (§1) The cytotoxicity of new derivatives of dicarboximides was tested in HeLa (cervix carcinoma cell line), K562 (myelogenous leukemia cell line), MOLT-4 (Human T-Lymphoid Cell Line), and HUVEC (normal endothelial) cells. First, the viability of cells was determined after 48 h incubation with the screened compounds used at the concentration of 100 μM (data not shown). […] Cells exposed to 1% DMSO (as vehicle) served as the control with 100% survival.
(§2) Human umbilical vein endothelial cells (Life Technologies, Carlsbad, CA, USA) were cultured (according to the manufacturer’s instructions) in Medium 200 containing low serum growth supplement; 1 × 10^4 cells were seeded on each well on a 96-well plate (Nunc, Roskilde, Denmark). The HeLa (human cervix carcinoma), K562, and MOLT-4 (leukemia) cells were cultured in RPMI 1640 medium supplemented with antibiotics and 10% fetal calf serum in a 5% CO2–95% air atmosphere; 7 × 10^3 cells were seeded on each well on a 96-well plate (Nunc). Twenty-four hours later, cells were exposed to the test compounds for additional 48 hours. Stock solutions of test compounds were freshly prepared in DMSO. The final concentrations of the compounds tested in the cell cultures were 2 × 10^−1, 1 × 10^−1, 5 × 10^−2, 1 × 10^−2, 1 × 10^−3, and 1 × 10^−4 mM. The concentration of DMSO in the cell culture medium was 1%. The values of IC50 (the concentration of test compound required to reduce the cell survival fraction to 50% of the control) were calculated from dose–response curves and used as a measure of cellular sensitivity to a given treatment. The cytotoxicity of all compounds was determined by the MTT [3-(4,5-dimethylthiazol-2-yl)-2,5-diphenyltetrazolium bromide; Sigma, St. Louis, MO, USA] assay. Briefly, after 24 or 48 h of incubation with drugs, the cells were treated with the MTT reagent, and incubation was continued for 2 h. MTT-formazan crystals were dissolved in 20% SDS and 50% DMF at pH 4.7, and absorbance was read at 570 and 650 nm on a microplate reader FLUOstar Omega (BMG Labtech, Offenburg, Germany). As a control (100% viability), we used cells grown in the presence of the vehicle (1% DMSO) only.

Data set [2] has as its system MOLT-4 (Human T-Lymphoid Cell Line). The data set can be described thus: MTT cytotoxicity assay, MOLT-4. The class given is cell-based. Conditions: read-out: IC50 MOLT-4. On the procedure:
as §1, §2

Data set [3] deals with caspase 3/7 in K562 cells. The data set can be described thus: Caspase-3/7 activity assay (Apo-ONE) in K562 cells. In kind it is cell-based, human. Conditions: K562, 18 h, test compound at 5xIC50, staurosporine 1 μM; vs 1% DMSO. The protocol: After incubation for 18 h, K562 cells were lysed and the activity of caspase 3/7 was measured using a profluorescent peptide substrate.
First, 20 × 10^3 K562 cells were seeded on each well of a 96-well plate in RPMI 1640 medium supplemented with 10% fetal calf serum and antibiotics. Cells were grown for 24 h at 37 °C and 5% CO2. Test dicarboximides were dissolved in DMSO and added to cell culture to the final concentration of 5 × IC50. […] Cells were exposed to test compounds for 18 h at 37 °C and 5% CO2. Subsequently, the activity of caspase 3 and 7 was measured by Apo-ONE® Homogeneous Caspase-3/7 Assay (Promega, Madison, WI, USA) according to the manufacturer’s instructions. Briefly, the cells were lysed and incubated for 1.5 h with a profluorescent substrate for caspase 3 and 7. Next, the fluorescence was read at an excitation wavelength of 485 nm and emission of 520 nm with a FLUOStar Omega microplate reader (BMG-Labtech, Offenburg, Germany).

Data set [4] concerns plasmid DNA (pcDNA3.1HisC). Description: DNA-cleavage protection assay (BamHI digestion of plasmid DNA). Conditions: 100 µM, overnight 37 °C, then BamHI 3 h. The class given is biochemical. The protocol: A DNA-cleavage protection assay has been successfully used for the identification of compounds that bind DNA either covalently or noncovalently. Such binding may result in DNA being less susceptible to enzymatic cleavage. […] It was also reported that naphtalenoimides or indolomaleimides intercalate into DNA [13, 14]. […] In CD studies, a synthetic 23-nt duplex DNA or bovine thymus DNA was incubated with compound Ic or daunorubicin (reference compound). […] Using a DNA-cleavage protection assay, we investigated whether selected compounds 2c, 2d, and 2f and 3c, 3d, and 3f interact with a plasmid DNA, resulting in increased resistance to endonucleolytic cleavage. Plasmid DNA (pcDNA3.1HisC) containing a single BamHI cleavage site was incubated with test compounds and subsequently digested with BamH1 restriction endonuclease. Daunorubicin (a strong DNA-intercalating agent) was used as a reference compound. Non-digested plasmid DNA existed predominantly in the circular form; however, the superhelical and linear forms were also detected (Figure 5, lane 1). […] This observation can be explained by the higher lipophilicity of 3c, 3d, and 3f compared to 2c, 2d, and 2f, which may facilitate their more efficient binding to DNA.
First, 0.5 μg of plasmid DNA (pcDNAHisC, total length 5.5 kbp) containing a unique BamHI restriction site was dissolved in a 1× BamHI reaction buffer and incubated overnight at 37 °C with the test compounds or daunorubicin. Daunorubicin, a strong intercalating agent, was used as a positive control. The concentration of the test compounds and daunorubicin samples was 100 µM. In the next step, the reaction mixtures were digested with BamHI restriction endonuclease (2 U/μL) for 3 h at 37 °C. The total reaction volume was 10 μL. Products of the reaction were subjected to the 1% agarose gel electrophoresis in TBE buffer. The gel was stained with ethidium bromide, and DNA fragments were visualized under a UV lamp (GBox, Syngene).

Data set [5] has as its system K562 (myelogenous leukemia cell line). The data set can be described thus: MTT cytotoxicity assay, K562. The class given is cell-based, human. Conditions: 48 h incubation, average (SD) of three experiments, read-out: IC50 K562. The protocol:
as §1, §2
(In general: Tetrazolium dyes change colour on reduction, which living cells bring about.)

Data set [6] deals with HeLa (human cervix carcinoma) cells. Description: MTT cytotoxicity assay, HeLa. Particulars: 48 h incubation, average (SD) of three experiments, read-out: IC50 HeLa. In kind it is cell-based. The protocol: as §1, §2
Data set [7] in a line: MTT cytotoxicity assay, cancer cell lines taken together (HeLa, K562, MOLT-4). In kind it is cell-based. Conditions: human, K562 and MOLT-4 cancer cells. The protocol:
The cytotoxicity of new derivatives of dicarboximides was tested in HeLa (cervix carcinoma cell line), K562 (myelogenous leukemia cell line), MOLT-4 (Human T-Lymphoid Cell Line), and HUVEC (normal endothelial) cells. First, the viability of cells was determined after 48 h incubation with the screened compounds used at the concentration of 100 μM (data not shown). For compounds that reduced the viability of cancer cells by more than 50%, the IC50 values were determined (Table 2). Cells exposed to 1% DMSO (as vehicle) served as the control with 100% survival.
Human umbilical vein endothelial cells (Life Technologies, Carlsbad, CA, USA) were cultured (according to the manufacturer’s instructions) in Medium 200 containing low serum growth supplement; 1 × 10^4 cells were seeded on each well on a 96-well plate (Nunc, Roskilde, Denmark). […] The cytotoxicity of all compounds was determined by the MTT [3-(4,5-dimethylthiazol-2-yl)-2,5-diphenyltetrazolium bromide; Sigma, St. Louis, MO, USA] assay. […] MTT-formazan crystals were dissolved in 20% SDS and 50% DMF at pH 4.7, and absorbance was read at 570 and 650 nm on a microplate reader FLUOstar Omega (BMG Labtech, Offenburg, Germany). […]

The mark [8] stands for this setting: 48 h incubation, average (SD) of three experiments.
Setting [9] is: MOLT-4, 48 h incubation, average (SD) of three experiments.

The term melting point denotes the temperature, or range, at which the solid turns liquid. As a reminder, the IC50 is the concentration that inhibits the measured activity by half. By viability is commonly meant a read-out of living cells in per cent, often relative to untreated cells. Higher therefore signals better survival.

Entries after “also recorded” stand apart in the source; their conditions may differ. Read-outs that look alike come from different tables or passages of the source.

Turning to `CC12C(=O)C(C)(C(c3ccccc3)=C1c1ccccc1)C1C(=O)N(CCCl)C(=O)C12` (stereo not drawn) [1h, 4-(2-chloroethyl)-1,7-dimethyl-8,9-diphenyl-4-azatricyclo[5.2.1.0^2,6]dec-8-ene-3,5,10-trione], the melting point was in the range of 190 to 191 °C. Moreover, the IC50 in data set [1] (48 h) is 64 µM. Besides, in data set [2] (MOLT-4, 48 h), the IC50 was 20 µM.
As to `CCC12C(=O)C(CC)(C(c3ccccc3)=C1c1ccccc1)C1C(=O)N(CC(O)CN3CCCCC3)C(=O)C12` (stereo not drawn) [2f, 4-[2-hydroxy-3-(piperidin-1-yl)propyl]-1,7-diethyl-8,9-diphenyl-4-azatricyclo[5.2.1.0^2,6]dec-8-ene-3,5,10-trione], the “activity of caspase 3/7” value in data set [3] is “over eight-fold increase in caspase activity; also recorded: activated caspase 3 and 7”. In data set [4], the “protection of plasmid DNA from BamHI digestion (circular DNA left)” value (“protection of plasmid DNA” below) is given as “the circular form was also detected”. The IC50 is 3.9 µM in data set [5]; under 6 µM in data set [5] (Homo sapiens, K562, 48 h); 5.1 µM in data set [6]; 3.1 µM in data set [1] (setting [8]); 3.4 µM in data set [2] (setting [9]).
Take `COc1cccc2c1C(=O)c1c(O)c3c(c(O)c1C2=O)C[C@@](O)(C(C)=O)C[C@@H]3O[C@H]1C[C@H](N)[C@H](O)[C@H](C)O1` [daunorubicin, reference compound]: the “protection of plasmid DNA” value in data set [4] is recorded as “prevented linearization of DNA”.
Regarding `O=C1C2C(C(=O)N1CC(O)CN1CCCCC1)C1(c3ccccc3)CC2(c2ccccc2)C(c2ccccc2)=C1c1ccccc1` (stereo not drawn) [3f, 4-[2-hydroxy-3-(piperidin-1-yl)propyl]-1,7,8,9-tetraphenyl-4-azatricyclo[5.2.1.0^2,6]dec-8-ene-3,5-dione], the “activity of caspase 3/7” value in data set [3] is “activated caspase 3/7 to a lesser extent; also recorded: activated caspase 3 and 7”. Also, the “protection of plasmid DNA” value in data set [4] is on record as “interaction seems to be stronger”. Moreover, the IC50 in data set [5] is 3 µM; in data set [5] (Homo sapiens, K562, 48 h), under 6 µM; in data set [6], 3 µM; in data set [1] (setting [8]), 0.4 µM; in data set [2] (setting [9]), 3 µM.
Consider `CN[C@@H]1C[C@H]2O[C@@](C)([C@@H]1OC)n1c3ccccc3c3c4c(c5c6ccccc6n2c5c31)C(=O)NC4` [staurosporine, reference compound], for which, in data set [3], the “activity of caspase 3/7” value is recorded as “strongly activated caspase 3/7”. The compound also yielded a viability at 48 h, 1 µM in data set [7] of 44 to 49%.
`CC12C(=O)C(C)(C(c3ccccc3)=C1c1ccccc1)C1C(=O)N(CCO)C(=O)C12` (stereo not drawn) [compound 4, 4-(2-hydroxyethyl)-1,7-dimethyl-8,9-diphenyl-4-azatricyclo[5.2.1.0^2,6]dec-8-ene-3,5,10-trione] showed a melting point of 186 to 187 °C. Besides, the IC50 in data set [5] (Homo sapiens, K562, 48 h) is 105 µM. Also, the IC50 in data set [6] worked out at 61 µM. In addition, the IC50 in data set [1] (setting [8]) was 56 µM. In addition, in data set [2] (setting [9]), the IC50 was determined as 71 µM.
Taken in the same sequence, the figures for `O=C1C2C(C(=O)N1CCO)C1(c3ccccc3)CC2(c2ccccc2)C(c2ccccc2)=C1c1ccccc1` (stereo not drawn) [compound 5, 4-(2-hydroxyethyl)-1,7,8,9-tetraphenyl-4-azatricyclo[5.2.1.02,6]dec-8-ene-3,5-dione] were 197 to 198 °C, 6.2 µM, 8 µM, 0.7 µM and 2.1 µM.
